Experiments:
[1] = molecular target: full-length recombinant human NEK7 (Homo sapiens (Human), UniProt Q8TDX7); test: NEK7 Enzymatic Assay ([33P]-ATP, casein substrate); assay type: biochemical
Description: Casein substrate (from bovine milk, hydrolyzed and partially dephosphorylated mixture of α, β and a caseins, obtained from Sigma Aldrich, catalogue #C4765, diluted in distilled water to a final concentration of 1 mg/mL) and full-length recombinant human NEK7 (expressed by baculovirus in Sf9 insect cells using a N-terminal GST tag, obtained from SignalChem, catalogue #N09-10G, 0.1 μg/μL) were mixed in assay buffer (20 mM Hepes pH 7.5, 10 mM MgCl2, 1 mM EGTA, 0.02% Brij35, 0.02 mg/ml BSA, 0.1 mM Na3VO4, 2 mM DTT, 1% DMSO). Compounds of interest (serial 3-fold dilution in DMSO from 10 μM to 0.5 nM) or vehicle (1% DMSO) were dispensed into the kinase reaction mixture by Acoustic technology (Echo550; nanoliter range). After incubation at room temperature for 20 minutes, the kinase reaction was initiated by addition of [^33P]-ATP (specific activity […]) and the mixture was incubated at room temperature for 2 hours. The reaction was then stopped by spotting the reaction mixture on strips of phosphocellulose P81 paper. Following washing, the radioactivity of the P81 paper was measured and kinase activity data were expressed as the percent remaining kinase activity in test samples compared to vehicle reactions. IC50 values and curve fits were obtained using Prism (GraphPad Software).

[2] = system: IL-1β release from THP-1 cells; test: IL-1β Release Assay (PMA-differentiated THP-1 cells, LPS + nigericin); assay type: cell-based; conditions: Homo sapiens, 250 ng/mL LPS, 20 μM nigericin
Description: Approximately 1.5 million THP-1 cells were plated in each well of a 6-well TC plate and incubated with 40 nM PMA in RPMI (10% FBS, 1% Penstrep) for 24 hours. The media was then removed and cells were rested in RPMI (10% FBS, 1% Penstrep) for 24 hours after which time the media was removed and cells were pre-treated for 2 hours with various concentrations of compounds of interest (typically serial 3-fold dilution in RPMI+5% FBS, concentrations ranging from 1 μM to 0.5 nM) in RPMI (5% FBS). The media was again removed and cells were incubated with 250 ng/mL LPS and compounds of interest (concentrations as above) in RMPI (5% FBS) for 2 hours. The media was removed for a last time and cells were incubated with 20 μM nigericin and compounds of interest (concentrations as above) in Opti-MEM for 30 minutes. Cell media was then collected and the amount of cleaved IL-1β was determined using a JESS instrument (Protein Simple) and standard protocols. Cleaved Il-1β antibody was obtained from Cell Signaling (catalogue #83186S) and was used at 1:20 dilution in antibody diluent 2. Protein Simple 1× anti-Rabbit HRP secondary antibody was used along with Protein Simple luminol and peroxide for chemiluminescent detection. Primary antibody incubation time was increased from 30 minutes to 60 minutes.

Sequence of full-length recombinant human NEK7 (Q8TDX7 whole entry): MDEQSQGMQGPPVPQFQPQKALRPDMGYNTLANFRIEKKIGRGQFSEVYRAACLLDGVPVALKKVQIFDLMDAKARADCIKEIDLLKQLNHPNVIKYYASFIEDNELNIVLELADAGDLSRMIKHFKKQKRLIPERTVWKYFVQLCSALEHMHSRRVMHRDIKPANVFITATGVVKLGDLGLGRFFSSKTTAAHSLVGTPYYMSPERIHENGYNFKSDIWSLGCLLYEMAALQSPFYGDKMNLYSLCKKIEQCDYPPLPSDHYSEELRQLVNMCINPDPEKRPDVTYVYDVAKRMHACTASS

| IC50 [1] | IC50 [2] | SMILES |
| --- | --- | --- |
| < 0.15 µM | < 0.15 µM | CC(C)(C)c1cc(NC(=O)Nc2ccc(-c3cn(C4CC4)c4ncnc(N)c34)cc2F)on1 [Example 2, 1-(4-(4-amino-7-cyclopropyl-7H-pyrrolo[2,3-d]pyrimidin-5-yl)-2-fluorophenyl)-3-(3-(tert-butyl)isoxazol-5-yl)urea] |
| < 0.15 µM | 0.151 to 0.3 µM | CC(C)(C)c1cc(NC(=O)Nc2ccc(-c3cn(C4CC4)c4ncnc(N)c34)cn2)on1 [Example 3, 1-(5-(4-amino-7-cyclopropyl-7H-pyrrolo[2,3-d]pyrimidin-5-yl)pyridin-2-yl)-3-(3-(tert-butyl)isoxazol-5-yl)urea] |
| < 0.15 µM | < 0.15 µM | Nc1ncnc2c1c(-c1ccc(NC(=O)Nc3cc(C4(C(F)(F)F)CC4)no3)c(F)c1)cn2C1CC1 [Example 5, 1-(4-(4-amino-7-cyclopropyl-7H-pyrrolo[2,3-d]pyrimidin-5-yl)-2-fluorophenyl)-3-(3-(1-(trifluoromethyl)cyclopropyl)isoxazol-5-yl)urea] |
| < 0.15 µM | 0.151 to 0.3 µM | CC(C)(F)c1cc(NC(=O)Nc2ccc(-c3cn(C4CC4)c4ncnc(N)c34)cc2F)on1 [Example 9, 1-(4-(4-amino-7-cyclopropyl-7H-pyrrolo[2,3-d]pyrimidin-5-yl)-2-fluorophenyl)-3-(3-(2-fluoropropan-2-yl)isoxazol-5-yl)urea] |
| 0.151 to 0.3 µM | < 0.15 µM | Nc1ncnc2c1c(-c1ccc(NC(=O)Nc3cc(C4(C(F)(F)F)CC4)on3)c(F)c1)cn2C1CC1 [Example 10, 1-(4-(4-amino-7-cyclopropyl-7H-pyrrolo[2,3-d]pyrimidin-5-yl)-2-fluorophenyl)-3-(5-(1-(trifluoromethyl)cyclopropyl)isoxazol-3-yl)urea] |
| 0.151 to 0.3 µM | < 0.15 µM | CC(C)(O)Cn1cc(-c2ccc(NC(=O)Nc3cc(C4(C(F)(F)F)CC4)no3)c(F)c2)c2c(N)ncnc21 [Example 14, 1-(4-(4-amino-7-(2-hydroxy-2-methylpropyl)-7H-pyrrolo[2,3-d]pyrimidin-5-yl)-2-fluorophenyl)-3-(3-(1-(trifluoromethyl)cyclopropyl)isoxazol-5-yl)urea] |
| > 1.5 µM | > 1 µM | CC(C)(C)c1cc(NC(=O)NC2CC=C(c3cn(C4CC4)c4ncnc(N)c34)CC2)on1 (centres unmarked) [Example 15, 1-(4-(4-amino-7-cyclopropyl-7H-pyrrolo[2,3-d]pyrimidin-5-yl)cyclohex-3-en-1-yl)-3-(3-(tert-butyl)isoxazol-5-yl)urea] |
| < 0.15 µM | < 0.15 µM | CC1(c2cc(NC(=O)Nc3ccc(-c4cn(C5CC5)c5ncnc(N)c45)cc3F)on2)CC1 [Example 17, 1-(4-(4-amino-7-cyclopropyl-7H-pyrrolo[2,3-d]pyrimidin-5-yl)-2-fluorophenyl)-3-(3-(1-methylcyclopropyl)isoxazol-5-yl)urea] |
| < 0.15 µM | < 0.15 µM | CC1(c2cc(NC(=O)Nc3ccc(-c4cn(C5CC5)c5ncnc(N)c45)cc3F)on2)CCC1 [Example 34, 1-(4-(4-amino-7-cyclopropyl-7H-pyrrolo[2,3-d]pyrimidin-5-yl)-2-fluorophenyl)-3-(3-(1-methylcyclobutyl)isoxazol-5-yl)urea] |
| 0.151 to 0.3 µM | 0.151 to 0.3 µM | CC(C)(C#N)c1cc(NC(=O)Nc2ccc(-c3cn(C4CC4)c4ncnc(N)c34)cc2F)on1 [Example 35, 1-(4-(4-amino-7-cyclopropyl-7H-pyrrolo[2,3-d]pyrimidin-5-yl)-2-fluorophenyl)-3-(3-(2-cyanopropan-2-yl)isoxazol-5-yl)urea] |
| < 0.15 µM | < 0.15 µM | Nc1ncnc2c1c(-c1ccc(NC(=O)Nc3cc(C4(C(F)(F)F)CC4)no3)nc1)cn2C1CC1 [Example 37, 1-(5-(4-amino-7-cyclopropyl-7H-pyrrolo[2,3-d]pyrimidin-5-yl)pyridin-2-yl)-3-(3-(1-(trifluoromethyl)cyclopropyl)isoxazol-5-yl)urea] |
| 0.501 to 1.5 µM | 0.301 to 0.5 µM | Cc1cc(-c2cn(C3CC3)c3ncnc(N)c23)ccc1NC(=O)Nc1cc(C2(C(F)(F)F)CC2)no1 [Example 38, 1-(4-(4-amino-7-cyclopropyl-7H-pyrrolo[2,3-d]pyrimidin-5-yl)-2-methylphenyl)-3-(3-(1-(trifluoromethyl)cyclopropyl)isoxazol-5-yl)urea] |
| < 0.15 µM | < 0.15 µM | Nc1ncnc2c1c(-c1ccc(NC(=O)Nc3cc(C4(C(F)(F)F)CC4)no3)c(F)c1)cn2C1CC(O)C1 (centres unmarked) [Example 39, 1-(4-(4-amino-7-(3-hydroxycyclobutyl)-7H-pyrrolo[2,3-d]pyrimidin-5-yl)-2-fluorophenyl)-3-(3-(1-(trifluoromethyl)cyclopropyl)isoxazol-5-yl)urea] |

Source: US11161852B1 (Halia Therapeutics, Inc., priority 2020, dated 2021)
